The record followed here is paper PMC9133015 (Nature Communications, 2022).

Several values for one entry are separate records, joined by “and”; a condition that tells them apart may be missing. Identical values can stand only once.

Assay in all cases: Kinase inhibitor specificity profiling (Reaction Biology Corporation)
Common to all, as to format: biochemical
Set-up in all cases: % Enzyme Activity (relative to DMSO controls): concentration or dose not given beside the values

The target of assay [1] is T1, panel of 370 protein kinases (Homo sapiens, UniProt O15075).
T1 construct: purchased Reaction Biology Corporation (assay service)
T1 sequence (O15075 whole entry): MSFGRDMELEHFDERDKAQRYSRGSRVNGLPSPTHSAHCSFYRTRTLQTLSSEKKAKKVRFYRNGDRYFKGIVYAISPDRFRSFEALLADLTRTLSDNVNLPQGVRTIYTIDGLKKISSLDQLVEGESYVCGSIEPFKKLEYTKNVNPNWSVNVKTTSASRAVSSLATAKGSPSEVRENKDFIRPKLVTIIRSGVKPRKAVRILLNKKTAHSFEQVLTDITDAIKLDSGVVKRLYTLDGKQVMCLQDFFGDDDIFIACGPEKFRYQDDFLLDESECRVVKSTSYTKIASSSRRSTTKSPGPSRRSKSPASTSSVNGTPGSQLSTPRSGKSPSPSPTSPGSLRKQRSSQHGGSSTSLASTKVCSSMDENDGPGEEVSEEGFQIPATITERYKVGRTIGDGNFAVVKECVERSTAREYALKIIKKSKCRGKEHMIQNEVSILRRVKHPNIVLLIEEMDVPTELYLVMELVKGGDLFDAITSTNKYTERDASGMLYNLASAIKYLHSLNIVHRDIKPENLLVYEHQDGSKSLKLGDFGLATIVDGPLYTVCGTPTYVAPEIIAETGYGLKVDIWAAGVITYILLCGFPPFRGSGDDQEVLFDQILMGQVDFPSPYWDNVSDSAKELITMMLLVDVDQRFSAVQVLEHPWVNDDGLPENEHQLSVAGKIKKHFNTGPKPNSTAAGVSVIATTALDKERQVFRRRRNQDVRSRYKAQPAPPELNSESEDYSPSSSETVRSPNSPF
The following applies: kinase DCAMKL1.

Assay [2] addresses T2, panel of 370 protein kinases (Homo sapiens, UniProt P06213).
T2 construct: purchased Reaction Biology Corporation (assay service)
The following applies: 2 h, kinase IR; read-out: % Enzyme Activity (relative to DMSO controls).

Assay [3] concerns the target T3, panel of 370 protein kinases (Homo sapiens, UniProt P07949).
T3 construct: purchased Reaction Biology Corporation (assay service)
Particulars: 2 h, kinase RET; read-out: % Enzyme Activity (relative to DMSO controls).

Assay [4] addresses T4, panel of 370 protein kinases (Homo sapiens, UniProt P52333).
T4 construct: purchased Reaction Biology Corporation (assay service)
The following applies: 2 h, kinase JAK3; read-out: % Enzyme Activity (relative to DMSO controls).

Assay [5] deals with T5, panel of 370 protein kinases (Homo sapiens, UniProt P53350).
T5 construct: purchased Reaction Biology Corporation (assay service)
Particulars: 2 h, kinase PLK1; read-out: % Enzyme Activity (relative to DMSO controls).

Assay [6] has as its target T6, panel of 370 protein kinases (Homo sapiens, UniProt P53667).
T6 construct: purchased Reaction Biology Corporation (assay service)
Particulars: 2 h, kinase LIMK1; read-out: % Enzyme Activity (relative to DMSO controls).

Assay [7] has as its target T7, panel of 370 protein kinases (Homo sapiens, UniProt P53778).
T7 construct: purchased Reaction Biology Corporation (assay service)
Particulars: 2 h, kinase P38g; read-out: % Enzyme Activity (relative to DMSO controls).

The target of assay [8] is T8, panel of 370 protein kinases (Homo sapiens, UniProt Q02779).
T8 construct: purchased Reaction Biology Corporation (assay service)
Particulars: 2 h, kinase MLK2/MAP3K10; read-out: % Enzyme Activity (relative to DMSO controls).

Assay [9] addresses T9, panel of 370 protein kinases (Homo sapiens, UniProt Q07912).
T9 construct: purchased Reaction Biology Corporation (assay service)
Particulars: 2 h, kinase ACK1; read-out: % Enzyme Activity (relative to DMSO controls).

For assay [10], the target named is T10, panel of 370 protein kinases (Homo sapiens, UniProt Q13557).
T10 construct: purchased Reaction Biology Corporation (assay service)
T10 sequence (Q13557 whole entry): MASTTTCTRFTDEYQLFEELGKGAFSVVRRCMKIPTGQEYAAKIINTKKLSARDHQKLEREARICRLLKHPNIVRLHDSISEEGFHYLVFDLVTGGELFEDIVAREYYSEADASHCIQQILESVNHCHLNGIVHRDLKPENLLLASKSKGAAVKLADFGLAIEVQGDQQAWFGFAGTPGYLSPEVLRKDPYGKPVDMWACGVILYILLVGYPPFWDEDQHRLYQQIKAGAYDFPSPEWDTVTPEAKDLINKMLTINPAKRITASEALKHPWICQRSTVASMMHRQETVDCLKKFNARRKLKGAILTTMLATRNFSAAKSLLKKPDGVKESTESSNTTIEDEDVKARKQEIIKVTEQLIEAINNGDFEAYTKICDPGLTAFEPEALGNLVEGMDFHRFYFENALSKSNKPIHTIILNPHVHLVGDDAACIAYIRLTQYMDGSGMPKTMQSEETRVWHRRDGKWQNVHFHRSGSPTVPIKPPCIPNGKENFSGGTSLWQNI
Particulars: 2 h, kinase CAMK2d; read-out: % Enzyme Activity (relative to DMSO controls).

The target of assay [11] is T11, panel of 370 protein kinases (Homo sapiens, UniProt Q16539).
T11 construct: purchased Reaction Biology Corporation (assay service)
T11 sequence (Q16539 whole entry): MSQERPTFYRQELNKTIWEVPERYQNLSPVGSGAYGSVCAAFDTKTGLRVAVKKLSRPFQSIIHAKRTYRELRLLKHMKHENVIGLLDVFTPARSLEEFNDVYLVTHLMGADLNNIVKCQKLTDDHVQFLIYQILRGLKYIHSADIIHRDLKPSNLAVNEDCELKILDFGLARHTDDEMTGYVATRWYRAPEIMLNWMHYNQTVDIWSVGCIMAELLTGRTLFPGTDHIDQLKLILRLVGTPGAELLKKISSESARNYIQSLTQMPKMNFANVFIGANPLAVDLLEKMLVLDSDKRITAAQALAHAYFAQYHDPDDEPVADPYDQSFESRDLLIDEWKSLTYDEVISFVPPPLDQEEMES
Particulars: kinase P38a/MAPK14.

Assay [12] deals with T12, panel of 370 protein kinases (Homo sapiens, UniProt Q5S007).
T12 construct: purchased Reaction Biology Corporation (assay service)
Particulars: 2 h, kinase LRRK2; read-out: % Enzyme Activity (relative to DMSO controls).

Assay [13] deals with T13, panel of 370 protein kinases (Homo sapiens, UniProt Q86Z02).
T13 construct: purchased Reaction Biology Corporation (assay service)
Particulars: 2 h, kinase HIPK1; read-out: % Enzyme Activity (relative to DMSO controls).

The target of assay [14] is T14, panel of 370 protein kinases (Homo sapiens, UniProt Q8N4C8).
T14 construct: purchased Reaction Biology Corporation (assay service)
Particulars: 2 h, kinase MINK/MINK1; read-out: % Enzyme Activity (relative to DMSO controls).

In assay [15] the target is T15, panel of 370 protein kinases (Homo sapiens, UniProt Q8TD19).
T15 construct: purchased Reaction Biology Corporation (assay service)
T15 sequence (Q8TD19 whole entry): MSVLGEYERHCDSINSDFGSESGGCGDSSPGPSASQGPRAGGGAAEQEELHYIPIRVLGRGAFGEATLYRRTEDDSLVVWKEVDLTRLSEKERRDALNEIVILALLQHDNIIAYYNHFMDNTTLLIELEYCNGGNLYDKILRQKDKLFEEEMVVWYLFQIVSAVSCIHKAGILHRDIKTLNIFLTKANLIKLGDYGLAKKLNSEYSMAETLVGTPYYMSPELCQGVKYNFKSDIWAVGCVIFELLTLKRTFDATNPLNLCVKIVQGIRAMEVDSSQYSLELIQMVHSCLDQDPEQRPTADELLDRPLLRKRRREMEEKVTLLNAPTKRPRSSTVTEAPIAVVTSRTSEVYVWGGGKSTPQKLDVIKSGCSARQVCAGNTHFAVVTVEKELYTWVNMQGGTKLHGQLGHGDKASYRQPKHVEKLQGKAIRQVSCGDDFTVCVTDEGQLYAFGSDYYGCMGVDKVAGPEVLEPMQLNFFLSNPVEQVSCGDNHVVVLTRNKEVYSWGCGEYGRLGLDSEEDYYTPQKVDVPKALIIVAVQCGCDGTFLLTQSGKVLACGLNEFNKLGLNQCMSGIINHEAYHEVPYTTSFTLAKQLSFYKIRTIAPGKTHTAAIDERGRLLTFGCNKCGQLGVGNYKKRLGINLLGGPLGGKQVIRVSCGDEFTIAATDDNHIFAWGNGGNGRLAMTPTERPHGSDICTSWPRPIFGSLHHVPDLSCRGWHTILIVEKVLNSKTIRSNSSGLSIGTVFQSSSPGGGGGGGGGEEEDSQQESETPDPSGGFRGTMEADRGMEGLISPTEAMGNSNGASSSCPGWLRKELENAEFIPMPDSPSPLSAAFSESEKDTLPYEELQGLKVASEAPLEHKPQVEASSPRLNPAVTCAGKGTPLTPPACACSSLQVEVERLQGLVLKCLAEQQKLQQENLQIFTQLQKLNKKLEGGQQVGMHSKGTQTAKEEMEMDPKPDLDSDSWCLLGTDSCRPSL
Particulars: 2 h, kinase NEK9; read-out: % Enzyme Activity (relative to DMSO controls).

In assay [16] the target is T16, panel of 370 protein kinases (Homo sapiens, UniProt Q8TDX7).
T16 construct: purchased Reaction Biology Corporation (assay service)
T16 sequence (Q8TDX7 whole entry): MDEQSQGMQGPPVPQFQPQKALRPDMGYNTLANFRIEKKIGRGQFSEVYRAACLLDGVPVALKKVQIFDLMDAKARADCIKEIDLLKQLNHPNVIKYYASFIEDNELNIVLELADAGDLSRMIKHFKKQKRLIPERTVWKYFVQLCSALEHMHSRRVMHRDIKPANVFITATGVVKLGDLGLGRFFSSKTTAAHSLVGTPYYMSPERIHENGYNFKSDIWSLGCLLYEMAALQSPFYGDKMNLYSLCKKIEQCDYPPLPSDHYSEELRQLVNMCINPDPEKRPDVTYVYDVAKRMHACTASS
Particulars: 2 h, kinase NEK7; read-out: % Enzyme Activity (relative to DMSO controls).

The target of assay [17] is T17, panel of 370 protein kinases (Homo sapiens, UniProt Q96SB4).
T17 construct: purchased Reaction Biology Corporation (assay service)
Particulars: 2 h, kinase SRPK1; read-out: % Enzyme Activity (relative to DMSO controls).

Assay [18] concerns the target T18, panel of 370 protein kinases (Homo sapiens, UniProt Q99759).
T18 construct: purchased Reaction Biology Corporation (assay service)
The following applies: 2 h, kinase MEKK3; read-out: % Enzyme Activity (relative to DMSO controls).

Assay [19] addresses T19, panel of 370 protein kinases (Homo sapiens, UniProt Q9BZL6).
T19 construct: purchased Reaction Biology Corporation (assay service)
The following applies: 2 h, kinase PKD2/PRKD2; read-out: % Enzyme Activity (relative to DMSO controls).

The target of assay [20] is T20, panel of 370 protein kinases (Homo sapiens, UniProt Q9H422).
T20 construct: purchased Reaction Biology Corporation (assay service)
Particulars: 2 h, kinase HIPK3; read-out: % Enzyme Activity (relative to DMSO controls).

Assay [21] has as its target T21, panel of 370 protein kinases (Homo sapiens, UniProt Q9HCP0).
T21 construct: purchased Reaction Biology Corporation (assay service)
Particulars: kinase CK1g1.

Assay [22] concerns the target T22, panel of 370 protein kinases (Homo sapiens, UniProt Q9NY57).
T22 construct: purchased Reaction Biology Corporation (assay service)
Particulars: 2 h, kinase STK32B/YANK2; read-out: % Enzyme Activity (relative to DMSO controls).

T21 sequence (Q9HCP0 whole entry): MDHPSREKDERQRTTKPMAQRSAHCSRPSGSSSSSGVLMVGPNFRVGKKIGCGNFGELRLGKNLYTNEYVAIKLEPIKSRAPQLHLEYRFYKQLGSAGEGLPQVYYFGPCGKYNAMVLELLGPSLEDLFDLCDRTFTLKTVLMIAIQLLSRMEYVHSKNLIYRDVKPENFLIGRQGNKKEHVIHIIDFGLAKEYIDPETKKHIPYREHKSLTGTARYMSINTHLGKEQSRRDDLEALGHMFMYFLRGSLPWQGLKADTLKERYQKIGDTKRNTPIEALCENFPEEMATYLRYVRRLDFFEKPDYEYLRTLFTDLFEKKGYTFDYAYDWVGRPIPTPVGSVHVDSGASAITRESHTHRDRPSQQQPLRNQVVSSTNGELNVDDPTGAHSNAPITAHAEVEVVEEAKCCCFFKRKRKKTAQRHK
T22 sequence (Q9NY57 whole entry): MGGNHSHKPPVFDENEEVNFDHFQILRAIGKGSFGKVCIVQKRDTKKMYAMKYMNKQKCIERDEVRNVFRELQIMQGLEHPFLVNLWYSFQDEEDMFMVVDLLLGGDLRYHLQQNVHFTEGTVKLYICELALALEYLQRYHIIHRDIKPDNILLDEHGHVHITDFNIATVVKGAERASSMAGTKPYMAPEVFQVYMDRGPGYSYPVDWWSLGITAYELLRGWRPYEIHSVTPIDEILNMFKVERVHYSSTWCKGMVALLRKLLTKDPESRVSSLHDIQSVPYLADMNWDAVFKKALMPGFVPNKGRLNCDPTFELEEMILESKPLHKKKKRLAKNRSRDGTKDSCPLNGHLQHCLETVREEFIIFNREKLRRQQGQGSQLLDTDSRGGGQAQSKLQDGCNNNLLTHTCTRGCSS
T6 sequence (P53667 whole entry): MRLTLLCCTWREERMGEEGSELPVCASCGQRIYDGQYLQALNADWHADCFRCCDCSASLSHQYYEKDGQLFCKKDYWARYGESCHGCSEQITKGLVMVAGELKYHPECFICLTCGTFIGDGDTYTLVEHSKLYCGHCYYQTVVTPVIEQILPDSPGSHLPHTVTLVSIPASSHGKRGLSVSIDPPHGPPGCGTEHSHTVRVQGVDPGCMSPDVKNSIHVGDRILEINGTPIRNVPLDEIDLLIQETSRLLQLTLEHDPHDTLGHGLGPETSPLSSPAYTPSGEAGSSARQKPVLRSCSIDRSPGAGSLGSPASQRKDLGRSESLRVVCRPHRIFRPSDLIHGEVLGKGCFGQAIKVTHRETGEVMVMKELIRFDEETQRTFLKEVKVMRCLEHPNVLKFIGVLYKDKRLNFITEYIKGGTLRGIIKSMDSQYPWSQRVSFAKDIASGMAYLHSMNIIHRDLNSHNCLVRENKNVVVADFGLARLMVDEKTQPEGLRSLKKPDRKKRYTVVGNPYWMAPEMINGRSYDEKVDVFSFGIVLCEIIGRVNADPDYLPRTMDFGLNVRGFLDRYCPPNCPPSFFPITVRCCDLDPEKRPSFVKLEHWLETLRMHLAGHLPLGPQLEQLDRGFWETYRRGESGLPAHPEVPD
T7 sequence (P53778 whole entry): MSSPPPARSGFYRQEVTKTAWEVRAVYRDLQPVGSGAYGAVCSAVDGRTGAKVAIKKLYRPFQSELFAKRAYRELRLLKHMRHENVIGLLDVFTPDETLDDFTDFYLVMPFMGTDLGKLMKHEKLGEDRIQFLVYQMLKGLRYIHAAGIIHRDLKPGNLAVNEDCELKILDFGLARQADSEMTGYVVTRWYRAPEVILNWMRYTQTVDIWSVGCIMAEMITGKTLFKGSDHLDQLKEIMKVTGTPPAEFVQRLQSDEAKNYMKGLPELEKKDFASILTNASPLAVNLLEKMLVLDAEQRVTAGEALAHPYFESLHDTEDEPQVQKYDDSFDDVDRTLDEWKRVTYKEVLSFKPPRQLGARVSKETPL

`CCN1CCN(C(=O)c2ccc(Nc3ncc(F)c(-c4ccc5nc(N(C)C)sc5c4)n3)nc2)CC1` [YK-2-69]: the “% Enzyme Activity (relative to DMSO controls)” value in [1] was 112.23% and 104.96%; in assay [11], 99.00% and 95.59%; in assay [21], 102.35% and 96.73%. In addition, the remaining activity at 1 µM in [2] stood at 99.4%; in assay [3], 88.1%; in [4], 111%; in assay [5], 115%; in assay [6] it was 95.7%; in [7], 98.1%. The remaining activity at 1 µM in assay [8] worked out at 81.7%; in [9], 101%; in [10], 92.8%; in [12], 72%; in [13] it was 106%; in assay [14], 100%. Further, the remaining activity at 1 µM in [15] turned out to be 105%; in [16], 96.7%; in [17] it was 91.8%; in assay [18] it was 106%; in assay [19] it was 80.8%; in assay [20], 49.6%. Moreover, in assay [22], the remaining activity at 1 µM is 103%.
